Columns and labels:
SpCas9 = SpCas9 (Streptococcus pyogenes serotype M1, UniProt Q99ZW2); test: Cas9 nuclease activity in EGFP disruption assay (U2OS.eGFP.PEST cells); format: cell-based; parameters: host or cells: U2OS.eGFP-PEST; settings: 10, 15, 20 μM, 24 h
Method: (§1) Cas9 Nuclease activity in EGFP disruption assay. Approximately 200,000 U2OS.eGFP-PEST cells were nucleofected with 400 ng of SpCas9 (Addgene Plasmid #43861) and 40 ng of sgRNA (pFYF1320 EGFP Site #1, Addgene Plasmid #47511) expressing plasmids along with a Td-tomato-encoding plasmid using the SE Cell Line 4D-Nucleofector™ X Kit (Lonza) according to the manufacturer's protocol. Approximately 20,000 transfected cells/well in 3 replicates were plated in a 96-well plate (Corning® 3904). Cells were allowed to grow in the indicated amount of compound or DMSO for 24 h post transfection. Cells were then fixed using 4% paraformaldehyde and imaged with the HCS NuclearMask™ Blue Stain (Life Technologies) as the nuclear counter-staining agent. Imaging was performed with an IXM 137204 ImageXpress Automated High Content Microscope (Molecular Devices) at 10× magnification under three excitation channels (blue, green and red) with 9 acquiring sites per well. Images were analyzed in the MetaXpress software and data were plotted using GraphPad Prism 6. The Z′-value was calculated following the formula: […]
Cas9 Nuclease activity in EGFP disruption assay. In some embodiments, a quantitative human cell-based reporter assay that enables rapid quantitation of targeted nuclease activities is used to characterize off-target cleavage of CRISPR protein-based RNA guided endonucleases. In this assay, the activities of nucleases targeted to a single integrated EGFP reporter gene can be quantified by assessing loss of fluorescence signal in human U2OS.EGFP cells caused by inactivating frameshift insertion/deletion (indel) mutations introduced by error prone non-homologous end-joining (NHEJ) repair of nuclease-induced double-stranded breaks (DSBs).
as §1, with “Approximately” for “Cas9 Nuclease activity in EGFP disruption assay. Approximately”

SpCas9:gRNA complex = target: T1, SpCas9:gRNA complex (Streptococcus pyogenes serotype M1, UniProt Q99ZW2); test: Bio-Layer Interferometry (BLI) of biotinylated compound with SpCas9:gRNA complex; format: binding
T1 construct: His6 (N, cleaved yes); made in house; host or cells: E. coli BL21 Star (DE3)
Method: Compound-Cas9 interaction in BLI. The experiments were performed in a 96-well format with 180 μL reaction volume using biotinylated compound BRD7087-Biotin and streptavidin sensors. 1 μM of the biotinylated compound was loaded onto the sensors for 180 s in 20 mM Tris buffer of pH 7.4, 100 mM KCl, 5 mM MgCl2, 1 mM DTT, 0.01% Tween®. The compound loaded sensors were then allowed to associate with the different concentration of SpCas9:gRNA complex (1-0.15 μM) for 300 s followed by dissociation in the reaction buffer. Reference sensor was loaded with compound and allowed to associate and dissociate in the reaction buffer alone. The response curves were fitted with a 2:1 stoichiometric model and a global fit steady-state analysis were performed using manufacturer inbuilt protocol. The experiment was performed in three replicates.
The competitive experiments were performed using Biotin-linker fragment. In this experiment, streptavidin sensors were pre-incubated with 10 μM of Biotin-linker before dipping into a solution of either 1 μM BRD7087-Biotin or reaction buffer alone. Sensors were then allowed to associate with different concentration of SpCas9:gRNA complex or buffer alone.
Compound-Cas9 interaction in BLL The experiments were performed in a 96-well format with 180 μL reaction volume using biotinylated compound BRD7087-Biotin and streptavidin sensors. […]

Chain of SpCas9 (Q99ZW2 whole entry): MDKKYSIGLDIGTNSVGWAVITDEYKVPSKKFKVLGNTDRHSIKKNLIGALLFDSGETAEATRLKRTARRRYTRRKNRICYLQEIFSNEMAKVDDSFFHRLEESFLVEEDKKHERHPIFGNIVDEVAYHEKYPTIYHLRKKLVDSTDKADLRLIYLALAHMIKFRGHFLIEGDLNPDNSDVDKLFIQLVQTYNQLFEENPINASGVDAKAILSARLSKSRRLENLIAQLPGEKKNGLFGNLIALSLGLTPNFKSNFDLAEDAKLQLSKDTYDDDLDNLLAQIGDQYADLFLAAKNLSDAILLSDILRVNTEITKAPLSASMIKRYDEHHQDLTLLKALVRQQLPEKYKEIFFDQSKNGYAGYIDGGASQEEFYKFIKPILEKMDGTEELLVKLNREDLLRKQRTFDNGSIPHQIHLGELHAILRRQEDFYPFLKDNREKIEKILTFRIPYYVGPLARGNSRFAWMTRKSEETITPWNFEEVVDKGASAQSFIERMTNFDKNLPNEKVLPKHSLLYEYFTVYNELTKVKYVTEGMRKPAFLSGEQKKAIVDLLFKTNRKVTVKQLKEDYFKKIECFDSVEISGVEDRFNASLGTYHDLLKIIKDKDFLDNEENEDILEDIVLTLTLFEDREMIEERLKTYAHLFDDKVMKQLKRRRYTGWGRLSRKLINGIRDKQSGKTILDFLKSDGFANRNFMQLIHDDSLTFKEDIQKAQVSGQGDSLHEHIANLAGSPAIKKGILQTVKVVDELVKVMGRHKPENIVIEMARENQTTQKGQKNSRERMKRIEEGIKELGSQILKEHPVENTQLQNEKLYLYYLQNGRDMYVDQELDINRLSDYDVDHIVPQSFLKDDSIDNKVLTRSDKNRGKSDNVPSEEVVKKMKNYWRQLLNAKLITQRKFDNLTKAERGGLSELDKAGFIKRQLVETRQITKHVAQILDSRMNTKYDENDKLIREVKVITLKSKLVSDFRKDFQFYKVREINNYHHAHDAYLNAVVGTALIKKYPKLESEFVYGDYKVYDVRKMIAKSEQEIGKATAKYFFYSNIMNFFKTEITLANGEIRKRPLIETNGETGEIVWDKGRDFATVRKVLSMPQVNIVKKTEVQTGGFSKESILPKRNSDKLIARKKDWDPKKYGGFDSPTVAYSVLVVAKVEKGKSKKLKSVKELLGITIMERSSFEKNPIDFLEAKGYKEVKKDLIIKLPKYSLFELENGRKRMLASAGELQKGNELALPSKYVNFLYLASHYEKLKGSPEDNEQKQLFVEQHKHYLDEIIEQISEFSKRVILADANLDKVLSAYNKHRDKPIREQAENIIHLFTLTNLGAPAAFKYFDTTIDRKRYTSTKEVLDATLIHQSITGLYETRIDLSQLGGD
T1 sequence (Q99ZW2 whole entry, one chain of several): as the sequence (Q99ZW2 whole entry) above

SMILES	potency of stereoisomers in EGFP-disruption assay compared with the parent (3aR,4S,9bR) compound (SpCas9)	Kd (SpCas9:gRNA complex; 1 μM BRD7087-Biotin on streptavidin sensors, SpCas9:gRNA 1-0.15 μM, read-out: dissociation constant (2:1 compound to Cas9 binding isotherm)) [nM]	BLI response signal in competitive experiment (SpCas9:gRNA complex; excess (10×) of biotin to compound loading)
OC[C@H]1Nc2ccc(-c3cccc(F)c3)cc2[C@@H]2[C@H]1CCN2Cc1ccncc1 [BRD0750, ((3aS,4S,9bS)-8-(3-Fluorophenyl)-1-(pyridin-4-ylmethyl)-2,3,3a,4,5,9b-hexahydro-1H-pyrrolo[3,2-c]quinolin-4-yl)methanol]	less potent		
O=C(CCCC[C@@H]1SC[C@@H]2NC(=O)N[C@@H]21)NCCOCCOCCOCCC(=O)Nc1cccc(-c2ccc3c(c2)[C@H]2[C@H](CCN2Cc2ccncc2)[C@@H](CO)N3)c1 [biotin-conjugate of BRD7087, N-(2-(2-(2-(3-((3-((3aR,4S,9bR)-4-(Hydroxymethyl)-1-(pyridin-4-ylmethyl)-2,3,3a,4,5,9b-hexahydro-1H-pyrrolo[3,2-c]quinolin-8-yl)phenyl)amino)-3-oxopropoxy)ethoxy)ethoxy)ethyl)-5-((3aS,4S,6aR)-2-oxohexahydro-1H-thieno[3,4-d]imidazol-4-yl)pentanamide]		~160	no substantial response signal
OC[C@@H]1Nc2ccc(-c3cccc(F)c3)cc2[C@@H]2[C@H]1CCN2Cc1ccncc1 [BRD5039, ((3aS,4R,9bS)-8-(3-Fluorophenyl)-1-(pyridin-4-ylmethyl)-2,3,3a,4,5,9b-hexahydro-1H-pyrrolo[3,2-c]quinolin-4-yl)methanol]	equipotent as BRD7087		
OC[C@@H]1Nc2ccc(-c3cccc(F)c3)cc2[C@H]2[C@@H]1CCN2Cc1ccncc1 [BRD2161, ((3aR,4R,9bR)-8-(3-Fluorophenyl)-1-(pyridin-4-ylmethyl)-2,3,3a,4,5,9b-hexahydro-1H-pyrrolo[3,2-c]quinolin-4-yl)methanol]	less potent		

Source: patent publication US11760984B2, “CRISPR protein inhibitors” (THE BROAD INSTITUTE, INC., priority 2017, dated 2023)
